From patent US20180064682A1, “INHIBITORS OF LEUKOTRIENE-MEDIATED ACTIVITY FOR TREATING SIDE EFFECTS OF STATIN THERAPY” (Yeda Research and Development Co. Ltd., priority 2014, published 2018)

What was measured:
[1] = tested on: Human HaCaT pre-keratinocytes; assay: ER stress-triggered ROS accumulation, DCFH-DA staining, HaCaT cells treated with Brefeldin A; format: cell-based; conditions: Brefeldin A 0.33 μg/ml, 24 hours, reversan 20 μM
Excerpt: FIGS. 4A-4E. ER stress-triggered ROS accumulation is mediated by MGST2-derived LTC4. (4A) Mouse B16 cells were transfected with control siRNA or MGST2 siRNA, then treated with tunicamycin and stained with the superoxide anion indicator dihydroethidium (DHE). Quantitation of relative DHE fluorescence intensity is presented as determined by the ImageJ program. N=3, ***p<0.001. (FIG. 4B) Mouse B16 cells were transfected with control siRNA or MGST2 siRNA, then treated with tunicamycin and stained with the superoxide anion indicator dihydroethidium (DHE). Silencing efficiency of mouse MGST2 mRNA as determined by qRT-PCR on replicate samples is shown. N=3, ***p<0.001. (FIG. 4C) Human HaCaT pre-keratinocytes were treated with Brefeldin A (0.33 μg/ml, 24 hours) with or without the MRP1 inhibitor reversan (20 μM) or the LTC4 antagonists pranlukast, BAY-cysLT2 or BAY-u9773. The cells were then stained with the ROS indicator DCFH-DA. Quantitative analysis of relative DCF fluorescence intensity is presented. […] N=3, * p<0.05. (FIG. 4D) Immunoblotting with anti FLAG tag of HEK 293T cell extract following transfection with either control pcDNA4 vector or pcMGST2-FLAG. (FIG. 4E) HEK 293T cells were either mock-transfected (Control), transfected with pcDNA4 or with pcMGST2-FLAG and then stained with DHE. Quantitative analysis of relative DHE fluorescence intensity is presented N=4, **p<0.01.
ER stress and oxidative stress are tightly associated, as ER stress triggers oxidative stress and vice versa. Therefore, a test for determining whether MGST2 and its product LTC4 are involved in ER stress-triggered ROS accumulation was performed. As previously reported, ER stress triggered by tunicamycin leads to accumulation of ROS, as detected by staining with the superoxide anion indicator dihydroethidium (DHE). […] MGST2 consumes GSH by coupling it not only to LTA4 but also to other substrates. […] Triggering ER stress by Brefeldin A generated ROS, as measured by the indicator dichloro-dihydro-fluorescein diacetate (DCFH-DA, FIGS. 4C, 5). […]

Human WISH cells [2] = assay: Brefeldin A-triggered cell death, Crystal violet viability, WISH cells; format: cell-based; conditions: Brefeldin A 0.66 μg/ml, 48 hours, BAY-cysLT2 5 μM
Experimental: (§1) FIGS. 7A-7G. The MGST2-LTC4 pathway mediates ER stress-triggered cell death. (FIG. 7A) Mouse B16 cells were transfected with control siRNA (siControl) or MGST2-specific siRNA (siMGST2), treated with vehicle or tunicamycin (1 μg/ml, 24 hours) (Tm) and then stained with Crystal violet. Relative viability of the cells is shown. N=3 ***p<0.0001. (FIG. 7B) Mouse B16 cells were transfected with control siRNA (siControl) or MGST2-specific siRNA (siMGST2), treated with vehicle or tunicamycin (Tm) and then stained with Crystal violet. Silencing efficiency of mouse MGST2 mRNA as determined by qRT-PCR on replicate samples is shown. N=3, ***p<0.001. (FIG. 7C) HEK 293T cells were mock-transfected, transfected with pcDNA4 or with pcMGST2-FLAG, treated with vehicle (Control) or Brefeldin A (0.66 μg/ml, 24 hours) and then stained with Crystal violet. Relative viability of the cells is shown. N=3 ****p<0.0001. (FIG. 7D) Human HaCaT pre-keratinocytes were treated with vehicle (Control) or Brefeldin A (BfA, 1.33 μg/ml, 48 hours) in the absence or presence of BAY-u9773 (80 nM). The plates were then stained with Crystal violet. Relative viability of the cells is shown. N=4 ***p<0.0001. (FIG. 7E) Human WISH cells were treated either with vehicle (Control) or tunicamycin (1 μg/ml, 48 hours) in the absence or presence of BAY-u9773 (80 nM) and then stained with Neutral red. Relative viability of the cells is shown. […]

[3] = tested on: differentiated mouse C2C12 myocytes; assay: Simvastatin-triggered cell death of differentiated C2C12 myocytes, Crystal violet; format: cell-based; conditions: for cell death triggered by simvastatin (relative cell viability): 10 uM simvastatin, 5 days, pranlukast 10 μM, BAY-cysLT2 10 μM, BAY-u9773 1 μM
Experimental: FIGS. 11A-11B. BAY-cysLT2 and BAY-u9773 but not pranlukast attenuate simvastatin-triggered cell death of differentiated C2C12 mouse myocytes. (FIG. 11A) Survival of mouse C2C12 cells following differentiation into myocytes, treated with 10 uM simvastatin for 5 days in the presence of vehicle, pranlukast (10 μM), BAY-cysLT2 (10 μM), BAY-u9773 (1 μM) or Mevalonate (71.4 μM). The plates were then stained with Crystal violet and the relative cell viability was determined. (FIG. 11B) Quantification of the staining intensity is shown.
FIGS. 12A-12B. Zileuton but not montelukast attenuates simvastatin-triggered death of differentiated C2C12 mouse myocytes. (FIG. 12A) C2C12 immortalized mouse myoblasts (15,000 cells/100 ul DMEM) were seeded for 24 and then differentiated for 3 days (initiated by serum free medium supplemented with 1×ITS medium) and then treated with […] Simvastatin with or without montelukast (2 μM), zileuton (10 μM) or mevalonate (71.4 μM). After 4 days the cells were stained with crystal violet and photographed under light microscope. (FIG. 12B) Quantification of the staining intensity is shown.
To study the role of the MGST2-LTC4 pathway in statin-triggered cell death, differentiated mouse C2C12 myocytes in 96 well plates were treated with 10 uM simvastatin or vehicle in the presence of either vehicle, BAY-cysLT2 (10 μM) or BAY-u9773 (1 μM) or sodium mevalonate for 5 days.
To study the role of the MGST2-LTC4 pathway in statin-triggered cell death, differentiated mouse C2C12 myocytes in 96 well plates were treated with 20 uM simvastatin or vehicle in the presence of either vehicle, zileuton (10 μM) or sodium mevalonate for 4 days.

NOX4 in human WISH cells = assay: NOX4 levels by immunoblotting, WISH cells under ER stress; format: cell-based; conditions: Brefeldin A 0.66 μg/ml, 24 hours
Experimental: (§2) FIGS. 6A-6C. ER stress-triggered NADPH oxidase 4 (NOX4) expression, translocation towards the nuclei and DNA oxidation are mediated by the MGST2-LTC4 pathway. (FIG. 6A) Human WISH cells were treated with vehicle (Control) or Brefeldin A (0.66 μg/ml, 24 hours) in the absence or presence of BAY-u9773, MK571 or Montelukast. NOX4 levels were evaluated by immunoblotting. (FIG. 6B) Mouse B16 cells were treated with vehicle (Control) or tunicamycin (0.5 μg/ml, 24 hours) in the absence or presence of Montelukast, BAY-u9773 or BAY-cysLT2. NOX4 levels were evaluated by immunoblotting. (FIG. 6C) Human HaCaT pre-keratinocytes were treated with vehicle (Control) or Brefeldin A (48 hours) in the absence or presence of pranlukast or BAY-u9773, then immunostained with anti 8-OHdG. Quantitative analysis of 8-OHdG fluorescence intensity is shown. N=3 *p<0.05, ****p<0.001.
Several ligands of G-protein coupled receptors to which CysLTR1 and CysLTR2 belong elicit oxidative stress through receptor-mediated activation of NOX. Human WISH cells and Mouse B16 cells were treated with vehicle (Control) or Brefeldin A (0.66 μg/ml, 24 hours) in the absence or presence of BAY-u9773, MK571 or Montelukast and NOX4 levels were evaluated by immunoblotting.

[4] = tested on: Human HaCaT pre-keratinocytes; assay: ER stress-triggered oxidative DNA damage, anti 8-OHdG immunostaining, HaCaT cells; format: cell-based; conditions: Brefeldin A 48 hours
Experimental: as §2
Accumulation of nuclear ROS in response to ER stress will result in oxidative DNA damage. To test whether the MGST2-LTC4 pathway is involved in ER stress-triggered DNA damage, the formation of the oxidized DNA derivative 8-hydroxy-2′dexoxyguanosine (8-OHdG) was measured. […] Altogether, the ER stress-triggered DNA damage was mediated to a very large extent by the MGST2-LTC4 pathway.

[5] = tested on: Human HaCaT pre-keratinocytes; assay: ER stress-triggered cell death, Crystal violet viability, HaCaT cells; format: cell-based
Experimental: as §1

Human WISH cells [6] = assay: Tunicamycin-induced cell death, Neutral red viability, WISH cells; format: cell-based; conditions: tunicamycin 1 μg/ml, 48 hours, BAY-u9773 80 nM
Experimental: as §1

Mouse B16 cells = assay: ER stress-triggered cell death, Crystal violet viability, B16 cells; format: cell-based; conditions: 24 hours, MK571 10 μM
Experimental: (§3) FIGS. 8A-8C. Inhibitors of the MGST2-LTC4 Pathway Attenuate ER Stress-triggered Cell Death. (FIG. 8A) Human WISH cells were treated with vehicle (Control) or Brefeldin A (0.66 μg/ml, 48 hours) in the absence or presence of BAY-cysLT2. The plates were then stained with Crystal violet. Relative viability of the cells is shown. N=4, ***p<0.001. (FIG. 8B) Mouse B16 cells were treated with vehicle (Control) or tunicamycin (1 μg/ml, 24 hours) (Tm), thapsigargin (50 nM, 24 hours) (Tg) or Brefeldin A (BfA […], 24 hours) in the presence or absence of MK571 for 24 h. The plates were stained with Crystal violet. Relative viability of the cells is shown. N=4, ***p<0.001. (FIG. 8C) Immunoblot of the necrosis marker HMGB1 released to the culture media of B16 cells treated with vehicle (Control) or Brefeldin A (1.3 μg/ml, 24 hours) in the presence or absence of MK571. Ponceau staining serves as loading control.
(§4) On top of its activity as an MRP1 inhibitor, MK571 is a potent selective CysLTR1 antagonist.

[7] = tested on: HMGB1 released from B16 cells; assay: Release of necrosis marker HMGB1 to culture medium, immunoblot, B16 cells; format: cell-based, mouse; conditions: Brefeldin A 1.3 μg/ml, 24 hours, MK571
Experimental: as §3, §4

## O=C(O)c1ccc(OCCCc2ccc(OCCCCOc3ccccc3)cc2)c(C(=O)NC2CCCC(C(=O)O)C2)c1 (centres unmarked) [BAY-cysLT2]
[1]
  ROS accumulation (relative DCF fluorescence intensity): significantly inhibited ROS accumulation
Human WISH cells [2]
  Brefeldin A-triggered death (relative viability): equally protected these cells from Brefeldin A
[3]
  cell death triggered by simvastatin (relative cell viability): attenuated cell death

## CCCCC/C=C\C\C=C/C=C/C=C/[C@@H](Sc1ccc(C(=O)O)cc1)[C@@H](O)CCCC(=O)O [BAY-u9773]
[1]
  ROS accumulation (relative DCF fluorescence intensity): significantly inhibited ROS accumulation
NOX4 in human WISH cells
  NOX4 expression upon ER stress: greatly inhibited NOX4 expression
[4]
  formation of nuclear 8-OHdG (oxidative DNA damage): even more effective in attenuating the DNA damage
[5]; Brefeldin A 1.33 μg/ml, 48 hours, BAY-u9773 80 nM
  ER stress triggered cell death (relative viability): attenuated ER stress triggered cell death
Human WISH cells [6]
  tunicamycin-induced death (relative viability): significantly attenuated tunicamycin-induced death
[3]
  cell death triggered by simvastatin (relative cell viability): attenuated cell death

## CN(C)C(=O)CCSC(SCCC(=O)O)c1cccc(/C=C/c2ccc3ccc(Cl)cc3n2)c1 (centres unmarked) [MK571]
NOX4 in human WISH cells
  NOX4 expression upon ER stress: greatly inhibited NOX4 expression
Mouse B16 cells; Brefeldin A
  cell death triggered by Brefeldin A (relative viability): significantly attenuated cell death
Mouse B16 cells; thapsigargin 50 nM
  cell death triggered by thapsigargin (relative viability): significantly attenuated cell death
Mouse B16 cells; tunicamycin 1 μg/ml
  cell death triggered by tunicamycin (relative viability): significantly attenuated cell death
[7]
  secretion of HMGB1 to the culture medium (cellular necrosis): reduced secretion of HMGB1

## O=C(NCCCN1CCOCC1)c1cnn2c(-c3ccccc3)cc(-c3ccccc3)nc12 [reversan]
[1]
  ROS accumulation (relative DCF fluorescence intensity): small but statistically insignificant inhibitory effect on ROS accumulation

## CC(c1cc2ccccc2s1)N(O)C(N)=O (centres unmarked) [zileuton]
[5]; MG262 50 nM, 24 hours, zileuton 10 μM
  death triggered by proteasome inhibitor MG262 (relative viability): significantly protected HaCaT keratinocytes from death
[3]; 20 uM simvastatin, 4 days, zileuton 10 μM, montelukast 2 μM
  cell death triggered by simvastatin (staining intensity): attenuated cell death
